{
  "source": "patent US20030170791A1",
  "about": "“Gene family encoding membrane steroid receptors” (priority 2001, published 2003)",
  "key": {"[1]": {"molecular_target": "T1, recombinant human kidney mSR (Homo sapiens, UniProt Q9NXK6)", "T1 construct": "The coding region of the steroid membrane receptor was amplified by PCR from a full-length cDNA plasmid clone; made in house; host or cells: E. coli", "T1 sequence (Q9NXK6 1-330)": "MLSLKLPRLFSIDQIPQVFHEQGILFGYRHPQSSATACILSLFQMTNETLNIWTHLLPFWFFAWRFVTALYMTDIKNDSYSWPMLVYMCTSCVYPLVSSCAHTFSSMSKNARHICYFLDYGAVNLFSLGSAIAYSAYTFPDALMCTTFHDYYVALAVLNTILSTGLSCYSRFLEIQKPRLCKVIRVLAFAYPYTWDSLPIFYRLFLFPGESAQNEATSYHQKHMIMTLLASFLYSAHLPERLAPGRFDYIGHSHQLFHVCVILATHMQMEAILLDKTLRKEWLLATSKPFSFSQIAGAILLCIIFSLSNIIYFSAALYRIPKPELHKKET", "assay": "3H-progesterone binding to recombinant human kidney mSR (saturation, kinetics, competition)", "settings": "for displacement of 3H-progesterone: competition curves, 10 nM 3H-progesterone, 1 nM-10 μM competitor", "procedure": "(§1) Receptor Binding of Human Membrane Steroid Receptors. Mouse testicular and human testicular and kidney mSR were expressed in E. coli and binding of the recombinant proteins to steroids was studied. The membrane steroid receptor from human brain was not expressed since the clone only contains part of the coding region.\n(§2) Binding Characters of Human Kidney Membrane Steroid Receptor. Saturation kinetics of ^3H-progesterone binding to the recombinant human kidney mSR was conducted with 7 progesterone concentrations (range 0.5-40 nM) in the absence (total binding) or presence of 1 μM excess cold steroid (nonspecific binding, FIG. 23).\nThe specific binding dissociated quickly with a t1/2 dissociation of 2 minutes (FIG. 24).\nFull competition curves were generated with 10 nM 3 H-progesterone (total binding) or in combination with 1 nM-10 μM of various steroids (FIG. 25, 26). […] This binding was very specific for 21 carbon steroids lacking a functional group at the 11 position."}, "[2]": {"molecular_target": "T2, seatrout recombinant mPR produced in E. coli (Cynoscion nebulosus, UniProt Q801D8)", "T2 construct": "The coding region of the steroid membrane receptor was amplified by PCR from a full-length cDNA plasmid clone; made in house; host or cells: E. coli BL21 (DE3), pET vector", "T2 sequence (Q801D8 1-352)": "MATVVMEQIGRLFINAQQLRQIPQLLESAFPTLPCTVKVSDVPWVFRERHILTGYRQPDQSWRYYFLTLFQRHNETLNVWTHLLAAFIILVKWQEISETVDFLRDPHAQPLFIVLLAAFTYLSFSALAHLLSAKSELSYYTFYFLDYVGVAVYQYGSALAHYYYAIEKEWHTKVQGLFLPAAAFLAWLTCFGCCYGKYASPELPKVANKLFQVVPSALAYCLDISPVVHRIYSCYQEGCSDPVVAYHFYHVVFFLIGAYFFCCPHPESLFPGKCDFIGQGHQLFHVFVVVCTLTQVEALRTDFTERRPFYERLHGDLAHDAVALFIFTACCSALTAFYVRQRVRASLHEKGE", "assay": "Steroid binding to recombinant seatrout mPR produced in E. coli (single-point, competition, saturation, kinetics)", "settings": "for specific binding of 3H-steroid (steroid specificity): single-point assay, 10 nM 3H-steroid with or without 100-fold excess non-radioactive steroid", "procedure": "The cloned membrane progestin receptor was expressed in E. coli and the binding of the recombinant protein to steroids was analyzed by a radiolabeled receptor assay.\n(§3) The PCR products were purified by electrophoresis using low-melting gel and a QIAquick Gel Extraction Kit. The purified PCR product was ligated into a pET expression vector. The pET vector was transformed into BL21 (DE3) E. coli cells. The positive clones were purified and sequenced. The plasmid without an insert was used as control. Recombinant protein was induced with IPTG at 25° C. and soluble recombinant proteins were extracted and analyzed.\n(§4) Initially, steroid specificity of the recombinant receptor was determined from single-point competition assays using 10 nM ^3H-steroid in the absence (total binding) or presence of 100-fold excess non-radioactive steroid (nonspecific binding, FIG. 8).\nFull competition curves were generated with 10 nM 3H-progesterone (total binding) or in combination with 1 nM-10 μM of various steroids (FIG. 8).\n(§5) Saturation kinetics of H^3-progesterone binding to the recombinant receptor were conducted with 7 progesterone concentrations (range 0.5-40 nM) in the absence (total binding) or presence of 1 μM excess cold steroid (nonspecific binding, FIG. 11)."}, "[3]": {"molecular_target": "T3, solubilized seatrout ovarian membrane progestin (20β-S) receptor (Cynoscion nebulosus, UniProt Q801D8)", "T3 sequence (Q801D8 1-352)": "T2 sequence (Q801D8 1-352)", "assay": "[3H]20β-S binding to solubilized seatrout ovarian membrane progestin receptor (DCC assay; saturation, Scatchard, association/dissociation)", "set-up": "species or system spotted seatrout (Cynoscion nebulosus)", "procedure": "20β-S receptor binding in solubilized membrane preparations was assayed using dextran-coated charcoal (DCC) to separate bound from steroid. The incubation conditions were similar to those used for the intact membrane preparation with the exception that 100-fold excess unlabeled 20β-S was used to determine non-specific binding. The incubation was terminated by adding 1-ml ice-cold DCC suspension (0.1 g dextran T-70 and 1 g charcoal per 100 ml HA buffer). The tubes were vortexed and the reaction mixture was incubated on ice for 5 minutes to absorb free steroid followed by centrifugation at 3200 g for 10 minutes at 4° C. The radioactivities of the filters or supernatants were measured using Beckman LS 6000SC Scintillation Counter (Beckman Instruments Inc., Houston, Tex.).\nSaturation kinetics of [^3H]20β-S binding to the solubilized membrane receptor was conducted with six radiolabeled 20β-S concentrations (range 0.25-10 nM) in the absence (total binding) or presence of 100-fold excess cold steroid (non-specific binding). The dissociation constant (Kd) and receptor concentration (Bmax) were calculated from Scatchard plots. One point assays were conducted with 5 nM radiolabeled 20β-S with or without 100-fold excess unlabeled steroid.\nThe rate of 20β-S association to the solubilized receptor was determined by measuring the specific binding of [^3H]20β-S after-incubation periods of 30 seconds to 24 hours. The rate of dissociation was determined by first allowing samples to equilibrate with tracer for 30 minutes before the addition of 100-fold excess unlabeled 20β-S and incubation for periods of 30 seconds to 24 hours."}, "[4]": {"molecular_target": "T4, recombinant human testicular mSR (Homo sapiens, UniProt Q86WK9)", "T4 construct": "The coding region of the steroid membrane receptor was amplified by PCR from a full-length cDNA plasmid clone; made in house; host or cells: E. coli", "T4 sequence (Q86WK9 1-346)": "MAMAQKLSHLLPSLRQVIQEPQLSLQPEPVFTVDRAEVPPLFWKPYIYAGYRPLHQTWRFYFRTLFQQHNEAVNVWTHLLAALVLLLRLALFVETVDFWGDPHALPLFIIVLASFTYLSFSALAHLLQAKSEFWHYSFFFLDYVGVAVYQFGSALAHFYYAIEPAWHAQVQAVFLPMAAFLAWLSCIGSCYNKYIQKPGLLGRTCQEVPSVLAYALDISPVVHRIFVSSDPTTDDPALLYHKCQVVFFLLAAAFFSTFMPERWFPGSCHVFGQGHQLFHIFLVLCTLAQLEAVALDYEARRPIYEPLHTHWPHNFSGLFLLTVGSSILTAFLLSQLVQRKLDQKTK", "assay": "Saturation/Scatchard analysis of 3H-progesterone binding to recombinant human testicular mSR", "settings": "Scatchard analysis", "procedure": "as §1\nas §2, with “Characteristics” for “Characters”, “Testicular” for “Kidney”, “testicular” for “kidney”, “22).” for “23).”"}, "E. coli control proteins": {"tested_on": "E. coli control proteins", "assay": "Steroid binding to E. coli control proteins (vector without insert)", "settings": "for binding to the control proteins: single-point assay, 10 nM 3H-steroid", "procedure": "as §3\nas §4, with “8). […] No binding of P4 and 17-P to the control proteins was observed (FIG. 7).” for “8).”\nas §5"}, "[5]": {"molecular_target": "T5, recombinant mouse testicular mSR (Mus musculus, UniProt Q80ZE5)", "T5 construct": "The coding region of the steroid membrane receptor was amplified by PCR from a full-length cDNA plasmid clone; made in house; host or cells: E. coli", "T5 sequence (Q80ZE5 1-354)": "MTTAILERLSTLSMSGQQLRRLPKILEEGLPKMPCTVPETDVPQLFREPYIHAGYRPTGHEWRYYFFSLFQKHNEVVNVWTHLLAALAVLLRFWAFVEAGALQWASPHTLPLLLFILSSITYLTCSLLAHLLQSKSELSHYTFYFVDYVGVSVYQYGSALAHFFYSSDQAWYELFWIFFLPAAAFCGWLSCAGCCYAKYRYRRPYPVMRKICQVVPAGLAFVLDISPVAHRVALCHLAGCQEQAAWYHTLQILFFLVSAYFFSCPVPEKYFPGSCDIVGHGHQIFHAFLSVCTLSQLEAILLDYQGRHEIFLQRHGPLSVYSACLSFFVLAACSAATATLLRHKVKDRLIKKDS", "assay": "Saturation/Scatchard analysis of 3H-progesterone binding to recombinant mouse testicular mSR", "settings": "Scatchard analysis", "procedure": "as §1\nas §2, with “Characteristics” for “Characters”, “Mouse Testicular” for “Human Kidney”, “mouse testicular” for “human kidney”, “of” for “of 1 μM”, “21).” for “23).”"}},
  "data": [
    {"molecule": "Vitamin D", "values": [
      {"measurement": "displacement of 3H-progesterone", "setting": "[1]", "result": "no displacement"}
    ]},
    {"molecule": "C[C@@H](O)[C@@]1(O)CC[C@H]2[C@@H]3CCC4=CC(=O)CC[C@]4(C)[C@H]3CC[C@@]21C", "note": "[17,20β-P, 17,20β-dihydroxy-4-pregnen-3-one]", "values": [
      {"measurement": "specific binding of 3H-steroid (steroid specificity)", "setting": "[2]", "result": "did not show any specific binding"}
    ]},
    {"molecule": "CC12CCC(=O)C=C1CCC1C2CCC2(C)C1CCC2(O)C(O)CO", "note": "(stereo not drawn) [20β-S, 17,20β,21-trihydroxy-4-pregnen-3-one]", "values": [
      {"measurement": "specific binding of 3H-steroid (steroid specificity)", "setting": "[2]", "result": "did not show any specific binding"},
      {"measurement": "Bmax", "setting": "[3]; Scatchard analysis, [3H]20β-S", "result": 0.204, "unit": "pmol g^−1 ovary"},
      {"measurement": "time to full displacement", "setting": "[3]; after 100-fold excess unlabeled 20β-S", "result": "≤ 20", "unit": "min"},
      {"measurement": "time to reach saturation of binding", "setting": "[3]; equilibrium study", "result": "≤ 15", "unit": "min"},
      {"measurement": "concentration at which saturation was achieved", "setting": "[3]; saturation analysis", "result": "approximately 10 nM"}
    ]},
    {"molecule": "CC[C@H](C)[C@@H]1NC(=O)[C@H](Cc2ccc(O)cc2)NC(=O)[C@@H](N)CSSC[C@@H](C(=O)N2CCC[C@H]2C(=O)N[C@@H](CC(C)C)C(=O)NCC(N)=O)NC(=O)[C@H](CC(N)=O)NC(=O)[C@H](CCC(N)=O)NC1=O", "note": "[oxytocin]", "values": [
      {"measurement": "displacement of 3H-progesterone", "setting": "[1]", "result": "no displacement"}
    ]},
    {"molecule": "C[C@]12CCC(=O)C[C@@H]1CC[C@@H]1[C@@H]2CC[C@]2(C)[C@@H](O)CC[C@@H]12", "note": "[5α-dihydrotestosterone]", "values": [
      {"measurement": "specific binding of 3H-steroid (steroid specificity)", "setting": "[2]", "result": "no specific binding"}
    ]},
    {"molecule": "C[C@]12CC[C@H]3[C@@H](CCC4=CC(=O)CC[C@@]43C)[C@@H]1CC[C@@H]2O", "note": "[testosterone]", "values": [
      {"measurement": "specific binding of 3H-steroid (steroid specificity)", "setting": "[2]", "result": "no specific binding"}
    ]},
    {"molecule": "C[C@]12CC(=O)[C@H]3[C@@H](CCC4=CC(=O)CC[C@@]43C)[C@@H]1CC[C@@H]2O", "note": "[11-ketotestosterone]", "values": [
      {"measurement": "specific binding of 3H-steroid (steroid specificity)", "setting": "[2]", "result": "no specific binding"}
    ]},
    {"molecule": "CC(=O)[C@H]1CC[C@H]2[C@@H]3CCC4=CC(=O)CC[C@]4(C)[C@H]3CC[C@]12C", "note": "[progesterone]", "values": [
      {"measurement": "Bmax", "setting": "[1]; Scatchard analysis", "result": 0.54, "unit": "nM"},
      {"measurement": "Kd", "setting": "[1]; Scatchard analysis, 3H-progesterone 0.5-40 nM", "result": 28, "unit": "nM"},
      {"measurement": "Bmax", "setting": "[4]", "result": 0.47, "unit": "nM"},
      {"measurement": "Kd", "setting": "[4]; 3H-progesterone 0.5-40 nM", "result": 37, "unit": "nM"},
      {"measurement": "specific binding to E. coli control proteins", "setting": "E. coli control proteins; saturation analysis, 3H-progesterone", "result": "no specific binding"},
      {"measurement": "binding to the control proteins", "setting": "E. coli control proteins", "result": "No binding"},
      {"measurement": "Kd", "setting": "[2]", "result": 30, "unit": "nM"},
      {"measurement": "Bmax", "setting": "[2]; Scatchard analysis, 3H-progesterone", "result": 0.49, "unit": "nM"},
      {"measurement": "specific binding of 3H-steroid (steroid specificity)", "setting": "[2]", "result": "Highest specific binding"},
      {"measurement": "Bmax", "setting": "[5]", "result": 0.304, "unit": "nM"},
      {"measurement": "Kd", "setting": "[5]; 3H-progesterone 0.5-40 nM", "result": 29, "unit": "nM"}
    ]},
    {"molecule": "CC(=O)[C@@]1(O)CC[C@H]2[C@@H]3CCC4=CC(=O)CC[C@]4(C)[C@H]3CC[C@@]21C", "note": "[17-P, 17-hydroxyprogesterone]", "values": [
      {"measurement": "displacement of 3H-progesterone", "setting": "[1]", "result": "equipotent with P4"},
      {"measurement": "binding to the control proteins", "setting": "E. coli control proteins", "result": "No binding"},
      {"measurement": "displacement of 3H-progesterone", "setting": "[2]; competition curves, 10 nM 3H-progesterone, 1 nM-10 μM competitor", "result": "equipotent with P4"},
      {"measurement": "specific binding of 3H-steroid (steroid specificity)", "setting": "[2]", "result": "high affinity"}
    ]}
  ]
}
